The structures appear in SMILES notation.

Holding throughout (assay): relative viability (nuclei count vs DMSO), 5 days (fraction); higher = more cells survive
Assay [1] concerns NCI-H1623. The method, boiled down: (§1)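 Lung cancer cell lines were seeded in 1536-well plates and dosed by pin tool the next day, with either a single drug or a fixed anchor-drug dose combined with five library-drug doses (not always all listed) spaced in √10 steps. Five days later, one step fixed the cells and stained their nuclei (final 0.05% Triton X-100, 1% formaldehyde, 1 ug/ml Hoechst), and nuclei were counted on 4× images. Relative viability is the nuclei count in treated wells divided by the count in vehicle wells, and each value is the median of duplicate plates.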

Assay [2] has as its system CAL-12T. The method, boiled down: as §1
Assay [3] concerns NCI-H1648. The method, boiled down:
as §1

Assay [4] has as its system NCI-H1703. The method, boiled down: as §1
The test system of assay [5] is NCI-H1299. Put shortly: as §1
In assay [6] the test system is EBC-1. Put shortly: as §1
The subject of assay [7] is IA-LM. The method, boiled down:
as §1

Assay [8] concerns A549. The method, boiled down:
as §1

The test system of assay [9] is Calu-6. Put shortly:
as §1

Regarding `CC(C)Oc1cc(Nc2nc(N[C@@H](C)c3ccc(F)cn3)ncc2Cl)n[nH]1` [AZ23] + Cc1cc(Nc2cc(N3CCN(C)CC3)nc(Sc3ccc(NC(=O)C4CC4)cc3)n2)n[nH]1 [Tozasertib] (partner 0.1 µM), the relative viability was 0.402 in assay [1] (first compound 0.01 µM); 0.427 in assay [1] (first compound 0.03162 µM); 0.504 in [1] (first compound 0.3162 µM); 0.342 in assay [2] (first compound 0.03162 µM); 0.241 in assay [2] (first compound 0.3162 µM); 0.542 in assay [3] (first compound 0.03162 µM). The relative viability in assay [3] (first compound 0.3162 µM) was 0.502.

On to `Clc1ccc(Nc2nnc(Cc3ccncc3)c3ccccc23)cc1` [Vatalanib] + COc1cc2c(Oc3ccc(NC(=O)C4(C(=O)Nc5ccc(F)cc5)CC4)cc3F)ccnc2cc1OCCCN1CCOCC1 [Foretinib] (partner 0.25 µM), for which the relative viability in [4] (first compound 0.04 µM) stood at 0.323; in [4] (first compound 0.4 µM), 0.335; in [4] (first compound 1.265 µM), 0.34; in [4] (first compound 4 µM), 0.363; in [5] (first compound 0.04 µM), 1.1; in assay [5] (first compound 0.1265 µM), 1.07. Also, the relative viability was 1.15 in assay [5] (first compound 0.4 µM); 1.11 in assay [5] (first compound 1.265 µM); 1.11 in assay [5] (first compound 4 µM); 0.111 in [6] (first compound 0.04 µM); 0.109 in assay [6] (first compound 0.1265 µM); 0.0892 in assay [6] (first compound 0.4 µM). The relative viability in [6] (first compound 1.265 µM) was found to be 0.0958; in assay [6] (first compound 4 µM), 0.118; in [1] (first compound 0.04 µM) it was 0.816; in [1] (first compound 0.1265 µM), 0.861; in [1] (first compound 0.4 µM) it was 0.794; in assay [1] (first compound 1.265 µM) it was 0.854. In addition, the relative viability came to 0.783 in assay [1] (first compound 4 µM); 1.16 in [7] (first compound 0.04 µM); 1.16 in [7] (first compound 0.1265 µM); 1.05 in [7] (first compound 0.4 µM); 0.919 in assay [7] (first compound 1.265 µM); 1.06 in assay [7] (first compound 4 µM). The relative viability in [8] (first compound 0.04 µM) came out at 1.06; in [8] (first compound 0.1265 µM), 0.909; in [8] (first compound 0.4 µM), 1.01; in assay [8] (first compound 1.265 µM) it was 0.881; in assay [8] (first compound 4 µM) it was 0.948; in assay [2] (first compound 0.04 µM), 1.07. Also, the relative viability in assay [2] (first compound 0.1265 µM) came to 1.16; in assay [2] (first compound 0.4 µM), 1.05; in assay [2] (first compound 1.265 µM), 1.04; in assay [2] (first compound 4 µM), 1.05; in [9] (first compound 0.04 µM), 0.967; in [9] (first compound 0.1265 µM), 0.765. Besides, the relative viability worked out at 0.926 in [9] (first compound 0.4 µM), 0.869 in [9] (first compound 1.265 µM) and 0.813 in assay [9] (first compound 4 µM).

As to `COc1cc(N2CCC(C(N)=O)CC2)ccc1Nc1nc(N)c(Cl)c(Nc2ccccc2S(=O)(=O)C(C)C)n1` [HG-5-88-01] + COc1cc2c(Oc3ccc(NC(=O)C4(C(=O)Nc5ccc(F)cc5)CC4)cc3F)ccnc2cc1OCCCN1CCOCC1 [Foretinib] (partner 0.25 µM), the relative viability was 0.41 in assay [4] (first compound 0.04 µM); 0.349 in assay [4] (first compound 0.1265 µM); 0.275 in [4] (first compound 1.265 µM); 0.331 in assay [4] (first compound 4 µM); 1.05 in assay [5] (first compound 0.04 µM); 1.11 in [5] (first compound 0.1265 µM). For the same compound, the relative viability in [5] (first compound 0.4 µM) came out at 1.1; in assay [5] (first compound 1.265 µM), 1.07; in assay [5] (first compound 4 µM), 1.1; in assay [6] (first compound 0.04 µM), 0.0975; in [6] (first compound 0.4 µM), 0.12; in assay [6] (first compound 1.265 µM) it was 0.11. Moreover, the relative viability in assay [6] (first compound 4 µM) came out at 0.105; in [1] (first compound 0.04 µM), 0.925; in [1] (first compound 0.1265 µM), 0.906; in assay [1] (first compound 0.4 µM) it was 0.845; in [1] (first compound 4 µM), 0.773; in assay [7] (first compound 0.04 µM), 1.28. Further, the relative viability in assay [7] (first compound 0.1265 µM) turned out to be 1.22; in [7] (first compound 0.4 µM), 1.05; in assay [7] (first compound 1.265 µM) it was 0.885; in assay [7] (first compound 4 µM) it was 1.18; in [8] (first compound 0.04 µM), 0.984; in assay [8] (first compound 0.1265 µM), 0.861. Moreover, the relative viability in assay [8] (first compound 0.4 µM) is 0.993; in assay [8] (first compound 1.265 µM), 0.87; in [8] (first compound 4 µM), 0.228; in [2] (first compound 0.04 µM), 1.06; in assay [2] (first compound 0.1265 µM) it was 1.19; in assay [2] (first compound 0.4 µM) it was 1.05. Further, the relative viability in assay [2] (first compound 1.265 µM) turned out to be 0.963; in [2] (first compound 4 µM), 0.945; in [9] (first compound 0.04 µM), 0.865; in assay [9] (first compound 0.1265 µM) it was 0.879; in [9] (first compound 0.4 µM) it was 0.866; in assay [9] (first compound 1.265 µM), 0.793. The same compound returned a relative viability in assay [9] (first compound 4 µM) of 0.686.

On to `C[C@@H]1CN(CC(=O)Nc2ccc3c(c2)Cc2cccc(-c4cc(=O)cc(N5CCOCC5)o4)c2S3)C[C@H](C)O1` + COc1cccc2cc(-c3nc([C@H]4CC[C@H](C(=O)O)CC4)n4ncnc(N)c34)[nH]c12 [OSI-027] (partner 0.5 µM), for which the relative viability in assay [1] (first compound 0.04 µM) was determined as 0.411; in assay [1] (first compound 0.1265 µM) it was 0.413; in assay [1] (first compound 0.4 µM), 0.412; in assay [1] (first compound 4 µM), 0.381; in assay [2] (first compound 0.04 µM), 0.734; in assay [2] (first compound 0.1265 µM), 0.675. Further, the relative viability in assay [2] (first compound 0.4 µM) was determined as 0.561; in [2] (first compound 4 µM), 0.237; in assay [3] (first compound 0.04 µM) it was 0.247; in [3] (first compound 0.1265 µM), 0.258; in assay [3] (first compound 0.4 µM), 0.242; in assay [3] (first compound 4 µM) it was 0.235.

Values taken from the supplement of paper PMC10307832.
